Measured values as given in US20130196949A1, “Hydroxyalkyl starch in combination with cytostatica for the treatment of cancers by reduction of tumor growth rates” (Fresenius Kabi Deutschland GmbH, priority 2012, published 2013).
Like-named read-outs stand apart in the source and are kept apart here.

Tests used:
[1] = LXFE 397 study, FIG. 2
Procedure: (§1) Starting on day 0, animals were weighed once to twice a week. Relative body weights (RBW) of individual animals are calculated by dividing the individual absolute body weight on day X (BWx) by the individual body weight on the day of randomization, i.e. day 0 (BW0), multiplied by 100, as shown by the following equation:
(§2) Group median of relative body weights were determined, considering only the weights of animals that were alive on the day in question.
Tumor growth and body weight were determined over the course of the experiment.

[2] = system: LXFE 397/26N17 (Non-Small Cell Lung Cancer, squamous cell carcinoma) xenograft
Procedure: (§3) Animals and tumor implants were monitored daily until the maximum number of implants show clear signs of beginning solid tumor growth. […] The day of randomization was designated as day 0 of an experiment and was also the first day of dosing.
(§4) The tumor volume was determined by a two-dimensional measurement with callipers on the day of randomization (Day 0) and then once to twice weekly. Tumor volumes were calculated according to the following equation:
Tumor Vol[mm^3]=a[mm]×b^2[mm^2]×0.5
(§5) where “a” is the largest diameter and “b” is the perpendicular diameter of the tumor representing an idealized ellipsoid.
(§6) The relative volume of an individual tumor on day X (RTVx) was calculated by dividing the absolute volume [mm^3] of the respective tumor on day X (Tx) by the absolute volume of the same tumor on the day of randomization, i.e. on day 0 (T0), multiplied by 100, as shown by the following equation:
(§7) Group median of RTVs were calculated, considering only the tumors of animals that were alive on the day in question. Group median RTVs are used for drawing tumor growth curves.
Mice were either treated with Capecitabine at a dose of 100 mg/kg per orally (p.o.), with the plasma expander Voluven® 10% at a dose of 20 ml/kg bodyweight intravenously (i.v.), or with saline (20 ml/kg) i.v. at days 0, 4, 7, 11, 14, and 18. Tumor growth and body weight were determined over the course of the experiment. […]

[3] = system: HNXF 1842 (Head and Neck Cancer, squamous cell carcinoma) xenograft; test: Tumor growth of HNXF 1842 human tumor xenograft in NMRI nu/nu mice; type: in vivo
Procedure: as §3, §4
Tumor Vol[mm^3]=a[mm]×b^2[mm^2]×0.5
as §5, §6, §7
Mice were either treated with Paclitaxel at a dose of 10 mg/kg i.v., with a combination of Voluven® 10% (20 ml/kg i.v.) and Paclitaxel (10 mg/kg i.v.), or with saline (20 ml/kg) i.v. at days 0, 7, 14, and 21. Tumor growth and body weight were determined over the course of the experiment. […]

[4] = Relative body weight of mice bearing HNXF 1842 tumors; type: in vivo; settings: HNXF 1842 study, FIG. 4
Procedure: as §1, §2
Mice were either treated with Paclitaxel at a dose of 10 mg/kg i.v., with a combination of Voluven® 10% (20 ml/kg i.v.) and Paclitaxel (10 mg/kg i.v.), or with saline (20 ml/kg) i.v. at days 0, 7, 14, and 21. Tumor growth and body weight were determined over the course of the experiment.

[5] = Relative body weight of mice bearing RXF 1220 tumors; type: in vivo; settings: RXF 1220 study, FIG. 6
Procedure: Starting on day 0, animals were weighed once to twice a week. Relative body weights (RBW) of individual animals are calculated by dividing the individual absolute body weight on day X (BWx) by the individual body weight on the day of randomization, i.e. day 0 (BW0), multiplied by 100, as shown by the following equation: Group median of relative body weights were determined, considering only the weights of animals that were alive on the day in question. Mice were either treated with Sunitinib at a dose of 40 mg/kg p.o., with a combination of Voluven® 10% (20 ml/kg i.v.) and Sunitinib (40 mg/kg p.o.), or with saline (20 ml/kg) i.v. at days 0-11. Tumor growth and body weight were determined over the course of the experiment.

[6] = system: RXF 1220 (renal cancer, hypernephroma) xenograft; settings: day 27; Sunitinib 40 mg/kg p.o., Voluven 10% 20 ml/kg i.v. 1 hour prior; days 0-11
Procedure: as §3, §4
Tumor Vol[mm^3]=a[mm]×b^2[mm^2]×0.5
as §5, §6, §7
Mice were either treated with Sunitinib at a dose of 40 mg/kg p.o., with a combination of Voluven® 10% (20 ml/kg i.v.) and Sunitinib (40 mg/kg p.o.), or with saline (20 ml/kg) i.v. at days 0-11. Tumor growth and body weight were determined over the course of the experiment. […]

SMILES: CCCCCOC(=O)Nc1nc(=O)n([C@@H]2O[C@H](C)[C@@H](O)[C@H]2O)cc1F [Capecitabine]
- relative median body weight over time (in words) [1]: did not increase the body weight as steadily as the other two
- median relative tumor volume increase compared to day 0 ([2]; day 14, Capecitabine 100 mg/kg p.o., Voluven 10% 20 ml/kg i.v. 1 hour prior, days 0, 4, 7, 11, 14, 18): approx. 15.2 fold
- inhibitory effect on tumor growth (in words) ([2]; over 14 days, combination compared with reference drug alone): moderately inhibited the tumor growth

SMILES: CC(=O)O[C@H]1C(=O)[C@@]2(C)[C@H]([C@H](OC(=O)c3ccccc3)[C@]3(O)C[C@H](OC(=O)[C@H](O)[C@@H](NC(=O)c4ccccc4)c4ccccc4)C(C)=C1C3(C)C)[C@]1(OC(C)=O)CO[C@@H]1C[C@@H]2O [Paclitaxel]
- median relative tumor volume increase compared to day 0 ([3]; day 18, Paclitaxel 10 mg/kg i.v., Voluven 10% 20 ml/kg i.v. 1 hour prior, days 0, 7, 14, 21): approx. 7.1 fold
- inhibitory effect on tumor growth (in words) ([3]; over 18 days, combination compared with reference drug alone): inhibited the tumor growth
- relative median body weight over time (in words) [4]: lowest increase

SMILES: CCN(CC)CCNC(=O)c1c(C)[nH]c(/C=C2\C(=O)Nc3ccc(F)cc32)c1C [Sunitinib]
- relative median body weight over time (in words) [5]: increased slightly over time
- median relative tumor volume increase compared to day 0 [6]: approx. 8.5 fold
